Tests used:
[1] = tested on: normal photodamaged dermal or epidermal tissue; conditions: topical application; cited from earlier work
[2] = tested on: aging skin; test: clinical study, combined day/night treatment with IRM and retinoid (2b); format: in vivo, human; conditions: day/night application
Procedure: The above study is repeated except that the topical composition containing the IRM is applied in the morning and a topical composition containing tretinoin is applied at night. Standard 2-4 mm skin punch biopsies are taken at pre-identified sites (on subject's arms) on Day 0 and at the Week 12 visit. Subjects apply the assigned formulation in the presence of the investigator and return for a biopsy within 4-6 hours.

[3] = tested on: aging skin; test: twelve-week clinical study, combined contemporaneous treatment with IRM and retinoid (2a); format: in vivo, human; conditions: contemporaneous application
Procedure: On Day 0, each enrolled subject is supplied with a package of individually coded tubes of cream, labeled “Tube A” and “Tube B”. Tube A contains one of two formulations: 5% IRM+vehicle (carrier); or vehicle only (placebo); Tube B contains either 0.025% tretinoin in a cream formulation or vehicle only (placebo). The subjects apply Tube A to the arms and face, wait 5 minutes, and then apply the contents of Tube B over the same area. Labels are randomly assigned with records separately maintained identifying the formulation. Codes are not known to either the subjects or the investigator until the study is completed and the data analyzed. All subjects receive Cetaphil cleanser, moisturizer and sunscreen for daily use throughout the study. The first application of Tube A and B is done in the presence of the study coordinator to ensure proper application. Written directions are given to the subjects to apply the products at the same time of day every day and to apply Tube B five minutes after applying Tube A.
Study participants apply the study creams once daily for 12 weeks. […]
Skin firmness (elasticity) is assessed using a ballistometer. Skin retention of water/skin moisture content is assessed via impedance measurements on the cheek area of subjects using a Novameter. Transepidermal water loss is measured using a Tewameter. Sebum secretion is measured using a Sebometer and Sebutape.

[4] = tested on: PBMC and pDC; test: cytokine production by PBMC and plasmacytoid dendritic cells (RT-PCR, ELISA); format: cell-based, human; conditions: added at 0.02% to 1% at the same time as TLR-7 agonists
Procedure: Cytokine production by plasmacytoid dendritic cells is measured using real-time RT-PCR on RNA collected from peripheral blood mononuclear cells (PBMC) including pDC (plasmacytoid dendritic cells).
An IRM (TLR-7 agonist) as described in one of the four embodiments of the present invention is introduced into a 24-well plate containing PBMC and pDC h Control wells are treated with DMSO. Cells are incubated for either one or two hours at 37° C. At the indicated times the cells are harvested by gently pipeting the cells into a 1.5 mL Eppendorf tube and centrifuging at 400 RCF for 10 min at 4° C. The supernatant is removed from the tube and the cells are lysed with 1 mL TRIzol (Life Technologies). […] RNA is quantified by absorbency (Abs260) and is reverse-transcribed using SuperScript First Strand Synthesis System for RT-PCR (Life Technologies). Primers for quantitative PCR are generated using Primer Express (PE Applied Biosystems). […] Quantitative PCR is performed on an ABI PRISM 7700 Sequence Detector. Amplified products are detected using SYBR Green PCR Master Mix (PE Biosystems). […] Relative quantitation of gene expression was performed using the DDCt method (User Bulletin #2, PE Applied Systems).
Cytokine and chemokine protein levels are measured from tissue culture supernatants or cell extracts using commercially-available enzyme-linked immuno assay (ELISA) kits. […]

Which “time until improved appearance (reduction in the appearance of fine lines and wrinkles) is visible” value [1] does the source give for `CC(C)Cn1cnc2c(N)nc3ccccc3c21` [Imiquimod, 1-isobutyl-1H-imidazo[4,5,-C]quinolin-4-amine] here?
The value was at most 4 weeks.

Which “Irritation (erythema and scaling)” value [2] does the source give for `CC1=C(/C=C/C(C)=C/C=C/C(C)=C/C(=O)O)C(C)(C)CCC1` [tretinoin, all-trans retinoic acid] here?
Its value is “at all time points but maximally at the 2 and 4 week time points”.

And the “TEWL (Tewameter)” value [2]?
Its value is “increased TEWL”.

And the “Irritation (erythema and scaling)” value [3]?
Its value is “at all time points but maximally at the 2 and 4 week time points”.

And the “TEWL (Tewameter)” value [3]?
Its value is “increased TEWL”.

What about the “amount of IFN-γ expressed by PBMC cells upon exposure to the TLR-7 agonist” value [4] of the same molecule?
The value was “lowers”.

— patent US20130330322A1, “Methods of Treating Skin Aging With Toll-Like Receptor 7 Agonists” (Metabeauty, Inc., priority 2012, published 2013)
